According to patent US7229762B2, “Proteomic screening for redox state dependent protein—protein interactions” (Duke University Medical Center, priority 2003, dated 2007):

Tests used:
[1] = molecular target: T1, caspase-3 interaction with iNOS / ASM (Homo sapiens, UniProt P42574); assay: Modified yeast two-hybrid, NO-dependent growth of iNOS/caspase-3 and ASM/caspase-3 clones; assay type: cell-based; conditions: iNOS/caspase-3 clone, presence vs absence of NO
T1 construct: expressed in transfected cells; host or cells: Saccharomyces cerevisiae CG-1945 Δyhb1
T1 sequence (P42574 1-277): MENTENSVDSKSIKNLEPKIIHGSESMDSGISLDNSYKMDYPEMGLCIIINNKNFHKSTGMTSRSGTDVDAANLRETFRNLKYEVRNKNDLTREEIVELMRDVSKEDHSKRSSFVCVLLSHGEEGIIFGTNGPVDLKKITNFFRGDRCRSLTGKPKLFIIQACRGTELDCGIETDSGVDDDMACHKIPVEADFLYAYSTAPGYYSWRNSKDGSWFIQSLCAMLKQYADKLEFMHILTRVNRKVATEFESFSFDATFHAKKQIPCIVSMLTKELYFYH
Procedure: Yeast (Δyhb1) were transformed with Gal4 BD-caspase-3 plasmid (bait) and a cDNA library (Gal4 AD prey plasmids) derived from activated (NO generating) macrophages. Screening was performed as described in the methods below. DETA-NO at less than 300 μM generates NO without inhibiting yeast growth (monitored by absorbance at 600 nm). Steady state NO concentrations are maintained at ˜100 nM–1 μM range for several days as measured with an NO electrode (not shown).
Auxotrophic selection was carried out on agar plates (15 cm in diameter) enriched in 50 mM phosphate buffer (pH 7.2; His-Trp-Leu (triple)-deficient buffered medium (TDBM)). […] Prey plasmids were isolated from positive yeast clones and then re-introduced into the bait strain to confirm bait-prey interactions. Method 2: After cells were seeded on 1.5% agar they were covered with 3% low melting point agar, which in turn was layered with culture medium. NO donors (e.g. DETA-NO; 300 μM final concentration) were added to the liquid layer every 24 hours. Colonies are grown for 4 days as described in ref 9. Method 3:
Auxotrophic selection was carried out in TDBM. Transformation with the cDNA library was followed by overnight growth in medium deficient in tryptophan and leucine. Transformants were then grown for 3 days in His-deficient medium supplemented with DETA-NO (typically 200 μM final concentration). […]

[2] = molecular target: T2, AIF/MIP-1α interaction (UniProt O95831+P10855); assay: Modified yeast two-hybrid, NO-dependent growth of AIF/MIP-1α clone; assay type: cell-based; conditions: 200 μM DETA-NO, 72 hrs
T2 construct: The entire open reading frame of AIF was derived from I.M.A.G.E. clones 1520292 and 25192; expressed in transfected cells; host or cells: Saccharomyces cerevisiae Δyhb1
Procedure: Yeast (Δyhb1) were transformed with Gal4 BD-AIF (Bait) and Gal4 AD-MIP-1α (Prey). (A) Robust growth of the AIF/MIP-1α clone requires NO (single asterisk, P<0.001 versus AIF/MIP-1α without NO) (n=6). […] Cells were grown in His-Trp-Leu-deficient medium at 30° C. for 72 hrs with or without 200 μM DETA-NO. (B) β-galactosidase activities in samples shown in A (single asterisk, P<0.001 vs. without NO, n=4).
To extend the generality of our findings, 2.5 million transformants were screened from our macrophage cDNA library for NO-dependent interactions, using apoptosis-inducing factor (AIF) as bait. AIF is implicated in cell death that is independent of caspase-3, and is not known to be regulated by NO (Lipton et al., 2002). […] One of these clones contained the entire cDNA sequence of the chemokine, macrophage inflammatory protein-1 alpha (MIP-1α). Since this clone contained a few extra amino acids derived from a linker sequence, the full length MIP-1α coding sequence was amplified by PCR and cloned into the pGAD 10 vector, whose NO-dependent interaction with AIF was verified.

[3] = molecular target: T3, ASM (Homo sapiens, UniProt P17405); assay: ASM activity assay of purified ASM (BODIPY FL C5-sphingomyelin); assay type: biochemical; conditions: DETA-NO 50 μM–200 μM, 30 or 60 min, pH 5.0
T3 sequence (P17405 47-631): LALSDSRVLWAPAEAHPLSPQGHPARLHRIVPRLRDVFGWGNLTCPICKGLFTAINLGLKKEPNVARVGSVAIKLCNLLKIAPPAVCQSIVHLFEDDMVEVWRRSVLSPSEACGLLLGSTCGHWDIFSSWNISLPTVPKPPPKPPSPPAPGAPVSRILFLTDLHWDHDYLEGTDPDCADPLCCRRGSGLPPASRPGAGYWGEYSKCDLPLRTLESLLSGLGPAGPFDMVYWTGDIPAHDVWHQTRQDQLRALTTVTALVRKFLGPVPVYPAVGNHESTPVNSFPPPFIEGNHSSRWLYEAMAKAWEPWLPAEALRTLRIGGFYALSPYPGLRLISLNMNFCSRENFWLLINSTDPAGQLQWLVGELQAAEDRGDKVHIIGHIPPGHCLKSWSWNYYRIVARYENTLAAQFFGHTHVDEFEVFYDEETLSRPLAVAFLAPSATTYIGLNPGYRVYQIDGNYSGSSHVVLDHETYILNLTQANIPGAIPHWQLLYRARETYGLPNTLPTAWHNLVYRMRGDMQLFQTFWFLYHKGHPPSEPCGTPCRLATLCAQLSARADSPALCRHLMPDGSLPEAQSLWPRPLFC
Procedure: (§1) ASM activity was measured essentially as described (E. Romiti et al., 2000), using BODIPY FL C5-sphingomyelin substrate (1.5 nmol) in assay buffer: 250 mM sodium acetate, pH 5.0, 10 mM EDTA. To assay Zn-stimulated ASM activity, 0.1 mM ZnCl was used instead of 10 mM EDTA. 30 μl sample was incubated with 70 μl assay buffer at 37° C. for 1–3 hours. Reactions were terminated by adding 1.0 ml heptane and 0.29 ml isopropyl alcohol. Phases were separated by adding 0.23 ml H2O. The heptane phase was washed with 0.23 ml H2O. The fluorescence of the organic phase (containing BODIPY FL-ceramide) was assayed at 505/514 nm excitation/emission wavelengths (slit width=2.5).
Purified ASM protein (3.4 μg) was treated with DETA-NO (50 μM–200 μM for 30 or 60 min) and ASM activity was measured at pH 5.0 (n=3).

[4] = molecular target: T4, caspase-3/ASM interaction (Homo sapiens, UniProt P42574); assay: In vitro ASM/caspase-3 co-precipitation, ASM activity in caspase-3 IPs; assay type: binding; conditions: 20 μM DETA-NO 60 min, then ASM 37° C. 2 hrs
T4 sequence (P42574 29-277): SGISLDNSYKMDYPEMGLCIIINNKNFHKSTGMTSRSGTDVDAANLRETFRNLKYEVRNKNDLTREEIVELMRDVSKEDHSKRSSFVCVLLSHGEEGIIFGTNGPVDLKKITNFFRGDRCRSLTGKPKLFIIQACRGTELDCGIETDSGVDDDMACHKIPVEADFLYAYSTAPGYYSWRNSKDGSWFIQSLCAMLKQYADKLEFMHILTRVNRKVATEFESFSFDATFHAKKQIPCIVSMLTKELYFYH
T4 sequence (P17405 47-631 partner): T3 sequence (P17405 47-631)
Procedure: as §1, with “width=2.5). […]” for “width=2.5).”
Purified caspase-3 was incubated in the presence or absence 20 μM DETA-NO for 60 min (30 nM steady state NO), followed by incubation with ASM at 37° C. for 2 hrs, and IP with caspase-3 antibody. […] The interaction of caspase-3 with ASM was measured as ASM activity in caspase-3 IP's (pH 5.0). […]
To determine the relevant target(s) of NO, ASM/caspase-3 co-precipitations were carried out following NO treatment of each partner alone. Using an ASM activity assay, the amounts of ASM that could be precipitated with a procaspase-3 antibody was assessed from co-incubates (2 hours at 37° C.) of ASM (20 pmol) and caspase-3 in limiting amounts (2.5 pmol). […]

T2 sequence (O95831 102-613): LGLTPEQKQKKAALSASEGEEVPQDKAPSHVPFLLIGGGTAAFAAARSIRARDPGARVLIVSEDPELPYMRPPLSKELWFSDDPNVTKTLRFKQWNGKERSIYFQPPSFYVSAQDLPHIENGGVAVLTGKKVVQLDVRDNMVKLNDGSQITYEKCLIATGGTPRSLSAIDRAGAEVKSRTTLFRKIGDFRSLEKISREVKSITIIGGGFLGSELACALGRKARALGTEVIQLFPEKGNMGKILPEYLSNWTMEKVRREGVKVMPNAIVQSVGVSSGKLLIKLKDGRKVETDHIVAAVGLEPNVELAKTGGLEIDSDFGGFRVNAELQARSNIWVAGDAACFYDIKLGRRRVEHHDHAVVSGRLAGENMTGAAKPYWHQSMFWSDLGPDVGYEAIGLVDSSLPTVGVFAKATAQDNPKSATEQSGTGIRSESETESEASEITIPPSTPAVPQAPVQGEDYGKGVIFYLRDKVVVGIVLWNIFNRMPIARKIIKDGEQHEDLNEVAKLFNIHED
T2 sequence (P10855 24-92): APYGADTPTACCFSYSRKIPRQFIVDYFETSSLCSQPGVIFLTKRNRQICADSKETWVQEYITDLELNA

Compound: [N]=O [NO, nitric oxide]
- NO-dependent growth of iNOS transformant [1]: ~9 fold
- increase in growth in the presence of NO [2]: 8 fold
- effect on ASM activity [3]: no direct effect on ASM activity
- binding of ASM to caspase-3 pretreated with NO [4]: induces binding of ASM
